Results as given in publication PMC6669600 (Viruses, 2019).

molecular target: N36 (gp41 NHR-derived target mimic peptide) (Human immunodeficiency virus type 1 group M subtype B, UniProt P04578); assay: CD spectroscopy of inhibitor complexed with N36; assay type: binding, HIV-1; details: α-helical content of complex, each peptide 10 μM in PBS pH 7.2, 20 C, [θ]222; repeated two times, representative data
Sequence (P04578 546-581): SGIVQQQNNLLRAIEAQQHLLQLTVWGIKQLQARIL

Substance	CD data (with N36) Helix (%)
Ac-MTWEEWDKKIEEYTKKIEEL-NH2 [MT-SC18EK]	56.3
Ac-MTWEEWDKKIEEYTKKIEELI-NH2 [MT-SC19EK]	84.8
Ac-MTWEEWDKKIEEYTKKIEELIK-NH2 [MT-SC20EK]	82
Ac-MTWEEWDKKIEEYTKKIEELIKK-NH2 [MT-SC21EK]	83.9
Ac-MTWEEWDKKIEEYTKKIEELIKKS-NH2 [MT-SC22EK]	84.6
Ac-MTWEEWDKKIEEYTKKIEELIKKSE-NH2 [MT-SC23EK]	84.1
Ac-MTWEEWDKKIEEYTKKIEELIKKSEE-NH2 [MT-SC24EK]	83.8
Ac-MTWEEWDKKIEEYTKKIEELIKKSEEQ-NH2 [MT-SC25EK]	84.9
Ac-MTWEEWDKKIEEYTKKIEELIKKSEEQQ-NH2 [MT-SC26EK]	85.2
Ac-MTWEEWDKKIEEYTKKIEELIKKSEEQQK-NH2 [MT-SC27EK]	87.4
Ac-MTWEEWDKKIEEYTKKIEELIKKSEEQQKK-NH2 [MT-SC28EK]	84.5
Ac-MTWEEWDKKIEEYTKKIEELIKKSEEQQKKN-NH2 [MT-SC29EK]	92
Ac-MTWEEWDKKIEEYTKKIEELIKKSEEQQKKNE-NH2 [MT-SC30EK]	92.6
Ac-MTWEEWDKKIEEYTKKIEELIKKSEEQQKKNEK-NH2 [MT-SC31EK]	92.4
Ac-MTWEEWDKKIEEYTKKIEELIKKSEEQQKKNEKE-NH2 [MT-SC32EK]	91.8
Ac-MTWEEWDKKIEEYTKKIEELIKKSEEQQKKNEKEL-NH2 [MT-SC33EK]	93.8
Ac-MTWEEWDKKIEEYTKKIEELIKKSEEQQKKNEKELK-NH2 [MT-SC34EK]	92
Ac-MTWEEWDRKIEEYTKKIEELIKKSQNQQEKN-NH2 [MT-WQ-EKN]	90.6
Ac-MTWEEWDRKIEEYTKKIEELIKKSQNQQIDL-NH2 [MT-WQ-IDL, reference compound]	86.9

Substance	CD data (with N36) Helix (%)
Ac-WEEWDKKIEEYTKKIEELI-NH2 [SC19EK]	80.3
Ac-WEEWDKKIEEYTKKIEELIK-NH2 [SC20EK]	78.8
Ac-WEEWDKKIEEYTKKIEELIKK-NH2 [SC21EK]	82.8
Ac-WEEWDKKIEEYTKKIEELIKKS-NH2 [SC22EK]	85.5
Ac-WEEWDKKIEEYTKKIEELIKKSE-NH2 [SC23EK]	80.7
Ac-WEEWDKKIEEYTKKIEELIKKSEE-NH2 [SC24EK]	79.9
Ac-WEEWDKKIEEYTKKIEELIKKSEEQ-NH2 [SC25EK]	78.4
Ac-WEEWDKKIEEYTKKIEELIKKSEEQQ-NH2 [SC26EK]	83.1
Ac-WEEWDKKIEEYTKKIEELIKKSEEQQK-NH2 [SC27EK]	85.7
Ac-WEEWDKKIEEYTKKIEELIKKSEEQQKK-NH2 [SC28EK]	87.7
Ac-WEEWDKKIEEYTKKIEELIKKSEEQQKKN-NH2 [SC29EK, reference compound]	88.9
Ac-WEEWDKKIEEYTKKIEELIKKSEEQQKKNE-NH2 [SC30EK]	92.9
Ac-WEEWDKKIEEYTKKIEELIKKSEEQQKKNEK-NH2 [SC31EK]	91.4
Ac-WEEWDKKIEEYTKKIEELIKKSEEQQKKNEKE-NH2 [SC32EK]	93.2
Ac-WEEWDKKIEEYTKKIEELIKKSEEQQKKNEKEL-NH2 [SC33EK]	94.1
Ac-WEEWDKKIEEYTKKIEELIKKSEEQQKKNEKELK-NH2 [SC34EK, reference compound]	92.6
Ac-WEEWDRKIEEYTKKIEELIKKSQNQQEKN-NH2 [WQ-EKN]	89.5
Ac-WEEWDRKIEEYTKKIEELIKKSQNQQIDL-NH2 [WQ-IDL, reference compound]	87.8
Ac-WMEWDREINNYTSLIHSLIEESQNQQEKAEQELL-NH2 [C34N145A]	81

molecular target: T1, N39 (gp41 NHR-derived target mimic peptide) (Human immunodeficiency virus type 1 group M subtype B, UniProt P04578); assay: CD spectroscopy of inhibitor complexed with N39; assay type: binding, HIV-1; details: each peptide 10 μM in PBS, repeated two times, representative data
T1 construct: we further used the NHR-derived peptide N39
T1 sequence (P04578 528-566): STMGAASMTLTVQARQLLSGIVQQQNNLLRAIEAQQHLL

Substance	α-helical content of complex with N39 [%]
enfuvirtide	53
